The source of these data is patent US4116950A, “Analogs of human β-endorphin” (Hoffmann-La Roche Inc., priority 1978, dated 1978).

Usually IC50 stands for the concentration that gives 50% inhibition. Read a high IC50 as weaker potency in that assay.

One assay deals with guinea pig ileum. Kind of assay: Opiate activity by guinea pig ileum assay (in vitro). In kind it is cell-based. The following applies: for relative potency: calculated using the IC50 of βh-endorphin as 100%; for IC50: guinea pig ileum assay. The text has this:
(§1) In vitro assay of opiate activity was by the guinea pig ileum method of Kosterlitz et al, Brit. J. Pharmacol. 39, 398 (1970) and in vivo assay in mice was by the tail-flick method of D'Amour and Smith, J. Pharmacol. Exp. Therap. 72, 74 (1941). The experimental procedure and method of calculation has been outlined by Loh et al., Proc. Natl. Acad. Sci. 73, 2895 (1976) and Tseng et al., Nature 263, 239 (1976).

The subject of the next assay is mice. Kind of assay: Analgesic potency in mice by tail-flick method (in vivo). The following applies: for AD50: mice, tail-flick; for relative potency: molar basis, AD50 of βh-endorphin as 100%.
Description: as §1

In the case of “[Ala^6,7, Phe^27, Gly^31 ] - βh -EP (YGGFMAAEKSQTPLVTLFKNAIIKNAFKKGG; Beta-endorphin; UniProt P01189 237-267, looked up, variant T6A S7A Y27F E31G) [Peptide II, analog of human β-endorphin substituted with Ala at 6 and 7, Phe at 27, Gly at 31]”, in the assay on guinea pig ileum, the relative potency is 118% and the IC50 came to 38 nM. Moreover, in the assay on mice (intracerebroventricular), the AD50 is 0.46(0.28-0.77) μg/mouse and the relative potency turned out to be 23%. Moreover, in the assay with mice (intravenous), the AD50 is listed as 22.1(14.3-34.3) mg/kg and the relative potency was determined as 49%.

Turning to “[D-Thr^2, Phe^27, Gly^31 ] - βh EP [Peptide IV]”, in the assay on guinea pig ileum, the relative potency was 136% and the IC50 was determined as 33 nM. Besides, in the assay on mice (intracerebroventricular), the AD50 was 0.52(0.24-1.16) μg/mouse and the relative potency worked out at 21%. Besides, in the assay with mice (intravenous), the AD50 result was “ca. 32.0 mg/kg” and the relative potency came to 32%.

For “[Nle^5, Phe^27, Gly^31 ] - βh -EP [Peptide III]”, in the assay on guinea pig ileum, the relative potency is listed as 118% and the midpoint of inhibition, the IC50, lay at 38 nM. Besides, in the assay with mice (intracerebroventricular), the AD50 is given as 0.31(0.14-0.72) μg/mouse and the relative potency was 35%. Also, in the assay with mice (intravenous), the AD50 result is given as “ca. 17.0 mg/kg” and the relative potency is 65%.

For “[Phe^27, Gly^31 ] - βh -EP (YGGFMTSEKSQTPLVTLFKNAIIKNAFKKGG; Beta-endorphin; UniProt P01189 237-267, looked up, variant Y27F E31G) [Peptide I, analog of human β-endorphin substituted with Phe at 27 and Gly at 31]”, in the assay on guinea pig ileum, the relative potency was 128% and the IC50 amounted to 35 nM. Moreover, the “duration of analgesic activity” value in the assay with mice (after iv injection compared with icv injection) is “shorter than after icv injection”. In addition, in the assay with mice (intracerebroventricular), the AD50 is 0.09(0.08-0.11) μg/mouse and the relative potency is given as 119%. Further, in the assay on mice (intravenous), the AD50 is recorded as 7.5(3.4-16.5) mg/kg and the relative potency amounted to 148%. Besides, the “in vivo analgesic activity compared with βh-endorphin” value in the assay on mice (mouse, iv or icv, in words) was “greater in vivo analgesic activity than the natural peptide”.

For βh -endorphin [reference compound], in the assay on guinea pig ileum, the relative potency is recorded as 100% and the midpoint of inhibition, the IC50, lay at 45 nM. Also, in the assay on mice (intracerebroventricular), the AD50 is listed as 0.11(0.07-0.17) μg/mouse and the relative potency is recorded as 100%. Also, in the assay with mice (intravenous), the AD50 is recorded as 11.4(6.4-19.6) mg/kg and the relative potency came to 100%.
